Results as given in ChEMBL document CHEMBL1157759, “Discovery of GS-9131: Design, synthesis and optimization of amidate prodrugs of the novel nucleoside phosphonate HIV reverse transcriptase (RT) inhibitor GS-9148” (Bioorg Med Chem, 2010).

Key:
[1] = test system: Human immunodeficiency virus 1; experiment: Antiviral activity against HIV1 3B infected in human MT2 cells assessed as inhibition of virus-induced cytopathic effect after 5 days by XTT assay; assay type: functional, organism-based
[2] = Half life in dog hepatocytes at 2 uM by LC/MS/MS analysis
[3] = Hydrolytic stability assessed as compound degradation per ug of protein at 10 uM after 90 mins by scintillation counting in presence of human recombinant cathepsin A; details: 1.5 h
[4] = Cytotoxicity against human MT2 cells after 5 days by XTT assay
[5] = Clearance in iv dosed Beagle dog after 24 hrs; details: in vivo
Homo sapiens = organism: Homo sapiens; experiment: in vitro; details: plasma
[6] = Metabolic stability in dog plasma assessed as compound remaining after 60 mins
PBMC = experiment: Metabolic stability in cathepsin A-overexpressing human PBMC assessed as compound degradation per ug of protein at 10 uM after 120 mins by scintillation counting; details: 2 h, 30 µM
[7] = Half life in human hepatocytes at 2 uM by LC/MS/MS analysis
[8] = Half life in dog intestine S9 fraction at 2 uM by LC/MS/MS analysis; details: intestine S9 fraction, t1/2
[9] = Cytotoxicity against human HepG2 cells assessed as inhibition of mitochondrial DNA replication after 14 days; details: read-out: MTC50
[10] = Human immunodeficiency virus 1, 3B, MT2, 120 h

Structure (SMILES) | EC50 [1, 10] [nM] | Activity [3] [pmol/min] | CC50 at 120 h [4] [nM] | Activity (PBMC) [pmol/min] | further results
CC(C)OC(=O)[C@H](Cc1ccccc1)NP(=O)(CO[C@@H]1C=C(F)[C@H](n2cnc3c(N)ncnc32)O1)Oc1ccccc1 (stereo partly specified) | 63 | – | – | – | –
CCCCOC(=O)[C@H](C)NP(=O)(CO[C@@H]1C=C(F)[C@H](n2cnc3c(N)ncnc32)O1)N[C@@H](C)C(=O)OCCCC | 68 | 17355 | 51000 | 18 | half-life at 2 µM [2]: 0.8 h; clearance at 24 h [5]: 53.7 mL/min/kg; remaining at 1 h (Homo sapiens): 96%; remaining at 1 h [6]: 100%
CCOC(=O)[C@H](C)NP(=O)(CO[C@@H]1C=C(F)[C@H](n2cnc3c(N)ncnc32)O1)OCC(F)(F)F (stereo partly specified) | 1050 | 1132 | > 100000 | 0.69 | half-life at 2 µM [2]: 1.43 h; half-life at 2 µM [7]: 3.08 h
CCOC(=O)[C@H](C)NP(=O)(CO[C@@H]1C=C(F)[C@H](n2cnc3c(N)ncnc32)O1)Oc1ccccc1 (stereo partly specified) [listing 1 of 2 here] | – | – | – | – | EC50 ([1]; mt2): 157 nM
CC[C@H](NP(=O)(CO[C@@H]1C=C(F)[C@H](n2cnc3c(N)ncnc32)O1)Oc1ccccc1)C(=O)OCC(C)C (stereo partly specified) | 103 | 728 | > 100000 | 1.9 | half-life at 2 µM ([2]; t1/2): 2.12 h
CC(C)COC(=O)[C@H](Cc1ccccc1)NP(=O)(CO[C@@H]1C=C(F)[C@H](n2cnc3c(N)ncnc32)O1)OCC(F)(F)F (stereo partly specified) | 119 | 30107 | > 100000 | 22 | half-life at 2 µM [2]: 0.45 h
CCCCCOC(=O)[C@H](C)NP(=O)(CO[C@@H]1C=C(F)[C@H](n2cnc3c(N)ncnc32)O1)Oc1ccccc1 (stereo partly specified) | 33 | 5088 | 27000 | 6.7 | half-life at 2 µM ([2]; t1/2): 0.95 h
CCCOC(=O)[C@H](C)NP(=O)(CO[C@@H]1C=C(F)[C@H](n2cnc3c(N)ncnc32)O1)N[C@@H](C)C(=O)OCCC | 1060 | – | – | – | –
CCOC(=O)[C@H](C)NP(=O)(CO[C@@H]1C=C(F)[C@H](n2cnc3c(N)ncnc32)O1)Oc1ccccc1 (stereo partly drawn) [(2S)-ETHYL 2-((((2R,5R)-5-(6-AMINO-9H-PURIN-9-YL)-4-FLUORO-2,5-DIHYDROFURAN-2-YLOXY)METHYL)(PHENOXY)PHOSPHORYLAMINO)PROPANOATE (ENANTIOMERIC MIX)] | – | – | – | – | EC50 ([1]; mt2): 96 nM
Nc1ncnc2c1ncn2[C@@H]1O[C@H](OCP(=O)(N[C@@H](Cc2ccccc2)C(=O)OCC2CC2)Oc2ccccc2)C=C1F (stereo partly specified) | 7.5 | 39270 | > 100000 | 41 | half-life at 2 µM ([2]; t1/2): 0.283 h; half-life at 2 µM ([7]; t1/2): 0.667 h
CCCOC(=O)[C@H](C)NP(=O)(CO[C@@H]1C=C(F)[C@H](n2cnc3c(N)ncnc32)O1)Oc1ccccc1 (stereo partly specified) | 52 | 19103 | 31000 | 26 | half-life at 2 µM ([2]; t1/2): 1.47 h
C[C@H](NP(=O)(CO[C@@H]1C=C(F)[C@H](n2cnc3c(N)ncnc32)O1)Oc1ccccc1)C(=O)OCC1CC1 (stereo partly specified) | 59 | – | – | – | –
CC[C@H](NP(=O)(CO[C@@H]1C=C(F)[C@H](n2cnc3c(N)ncnc32)O1)N[C@@H](CC)C(=O)OC(C)C)C(=O)OC(C)C | > 2000 | 0 | – | 0.05 | half-life at 2 µM [2]: 11.5 h; remaining at 1 h (Homo sapiens): 100%; remaining at 1 h [6]: 100%
CCCCSC(=O)[C@@H](Cc1ccccc1)NP(=O)(CO[C@@H]1C=C(F)[C@H](n2cnc3c(N)ncnc32)O1)Oc1ccccc1 (stereo partly specified) | 141 | 1510 | > 100000 | 2.1 | half-life at 2 µM ([2]; t1/2): 0.933 h
CC(C)OC(=O)[C@H](C)NP(=O)(CO[C@@H]1C=C(F)[C@H](n2cnc3c(N)ncnc32)O1)Oc1ccccc1 (stereo in doubt; 18s) [(2S)-ISOPROPYL 2-(((2R,5R)-5-(6-AMINO-9H-PURIN-9-YL)-4-FLUORO-2,5-DIHYDROFURAN-2-YLOXY)(PHENOXY)PHOSPHORYLAMINO)PROPANOATE (ENANTIOMERIC MIX)] | – | 216 | – | 0.3 | half-life at 2 µM ([2]; t1/2): 1.47 h; EC50 ([1]; mt2): 728 nM
CCCCOC(=O)[C@H](CC)NP(=O)(CO[C@@H]1C=C(F)[C@H](n2cnc3c(N)ncnc32)O1)Oc1ccccc1 (stereo partly specified) | 88 | 1377 | 70000 | 1.4 | half-life at 2 µM ([2]; t1/2): 1.52 h
CC(C)COC(=O)CNP(=O)(CO[C@@H]1C=C(F)[C@H](n2cnc3c(N)ncnc32)O1)NCC(=O)OCC(C)C | 1610 | 0 | > 100000 | 0 | –
CCOC(=O)[C@H](C)NP(=O)(CO[C@@H]1C=C(F)[C@H](n2cnc3c(N)ncnc32)O1)N[C@@H](C)C(=O)OCC | 723 | – | – | – | –
Nc1ncnc2c1ncn2[C@@H]1O[C@H](OCP(=O)(N[C@@H](Cc2ccccc2)C(=O)OC2CCC2)Oc2ccccc2)C=C1F (stereo partly specified) | 20 | – | – | – | –

Structure (SMILES) | EC50 [1, 10] [nM] | Activity [3] [pmol/min] | CC50 at 120 h [4] [nM] | Activity (PBMC) [pmol/min] | further results
C[C@H](NP(=O)(CO[C@@H]1C=C(F)[C@H](n2cnc3c(N)ncnc32)O1)Oc1ccccc1)C(=O)OC1CCCC1 (stereo partly specified) | 63 | 5688 | > 100000 | 3 | –
Nc1ncnc2c1ncn2[C@@H]1O[C@H](OCP(=O)(N[C@@H](Cc2ccccc2)C(=O)OCC2CCC2)Oc2ccccc2)C=C1F (stereo partly specified) | 3.8 | 37017 | 46500 | 24 | half-life at 2 µM ([2]; t1/2): 0.383 h; half-life at 2 µM ([7]; t1/2): 1.03 h; half-life at 2 µM [8]: 3.4 min
CCCCOC(=O)[C@H](CC)NP(=O)(CO[C@@H]1C=C(F)[C@H](n2cnc3c(N)ncnc32)O1)N[C@@H](CC)C(=O)OCCCC | 90 | 1872 | > 100000 | 1.3 | half-life at 2 µM ([2]; t1/2): 1.22 h; remaining at 1 h (Homo sapiens; Stability): 99%; remaining at 1 h ([6]; Stability): 100%
CC(C)COC(=O)[C@H](C)NP(=O)(CO[C@@H]1C=C(F)[C@H](n2cnc3c(N)ncnc32)O1)N[C@@H](C)C(=O)OCC(C)C | 119 | 1770 | > 100000 | 2.1 | half-life at 2 µM [2]: 3.22 h
CCCCOC(=O)[C@H](Cc1ccccc1)NP(=O)(CO[C@@H]1C=C(F)[C@H](n2cnc3c(N)ncnc32)O1)N[C@@H](Cc1ccccc1)C(=O)OCCCC | 8.4 | 66680 | 4800 | 50 | half-life at 2 µM [2]: 0.167 h
C[C@H](Cn1cnc2c(N)ncnc21)OCP(=O)(O)O [TENOFOVIR ANHYDROUS] | 13 | – | > 50000 | – | CC50 at 336 h [9]: 3600 nM
CC(C)COC(=O)CNP(=O)(CO[C@@H]1C=C(F)[C@H](n2cnc3c(N)ncnc32)O1)Oc1ccccc1 (stereo partly specified) | 1120 | 226 | 22000 | 0.72 | –
CCCOC(=O)[C@H](Cc1ccccc1)NP(=O)(CO[C@@H]1C=C(F)[C@H](n2cnc3c(N)ncnc32)O1)Oc1ccccc1 (stereo partly specified) | 4.9 | – | – | – | –
CCOC(=O)[C@H](C)OP(=O)(CO[C@@H]1C=C(F)[C@H](n2cnc3c(N)ncnc32)O1)Oc1ccccc1 (stereo partly specified) | 2000 | – | – | – | –
CCOC(=O)[C@H](C)NP(=O)(CO[C@@H]1C=C(F)[C@H](n2cnc3c(N)ncnc32)O1)Oc1ccccc1 (stereo partly specified) [listing 2 of 2 here] | – | – | – | – | EC50 ([1]; mt2): 262 nM
CCCCOC(=O)[C@H](C)NP(=O)(CO[C@@H]1C=C(F)[C@H](n2cnc3c(N)ncnc32)O1)Oc1ccccc1 (stereo partly specified) | 92 | 6183 | 91000 | 7.3 | half-life at 2 µM ([2]; t1/2): 1.05 h
CCC(CC)OC(=O)[C@H](C)NP(=O)(CO[C@@H]1C=C(F)[C@H](n2cnc3c(N)ncnc32)O1)Oc1ccccc1 (stereo partly specified) | 662 | 0 | 8350 | 0 | –
CCOC(=O)[C@H](Cc1ccccc1)NP(=O)(CO[C@@H]1C=C(F)[C@H](n2cnc3c(N)ncnc32)O1)N[C@@H](Cc1ccccc1)C(=O)OCC | 8.9 | 41020 | – | 40 | –
CCCOC(=O)[C@H](Cc1ccccc1)NP(=O)(CO[C@@H]1C=C(F)[C@H](n2cnc3c(N)ncnc32)O1)N[C@@H](Cc1ccccc1)C(=O)OCCC | 5.2 | 27642 | – | 20 | –
C[C@H](NP(=O)(CO[C@@H]1C=C(F)[C@H](n2cnc3c(N)ncnc32)O1)Oc1ccccc1)C(=O)OCC1CCC1 (stereo partly specified) | 25 | – | – | – | –
CC[C@H](NP(=O)(CO[C@@H]1C=C(F)[C@H](n2cnc3c(N)ncnc32)O1)N[C@@H](CC)C(=O)OCC(C)C)C(=O)OCC(C)C | 128 | 867 | – | 1.3 | half-life at 2 µM [2]: 1.18 h
CC(C)COC(=O)[C@H](C)NP(=O)(CO[C@@H]1C=C(F)[C@H](n2cnc3c(N)ncnc32)O1)Oc1ccccc1 (stereo partly specified) | 58 | – | – | – | –
CC(C)OC(=O)CNP(=O)(CO[C@@H]1C=C(F)[C@H](n2cnc3c(N)ncnc32)O1)NCC(=O)OC(C)C | > 2000 | – | – | – | –
